Data published in patent publication US8133471B2, “CLK-peptide and SLK-peptide” (New York University, priority 2003, dated 2012).

System: GL261 glioblastoma cells
Test: GL261 proliferation, CLK-peptide combined with ionizing radiation
Format: cell-based, murine
Details: CLK-peptide 50 μg/ml + 5.0 Gy, 3 days, P<0.050, versus control
Description: FIG. 24 CLK-Peptide Enhances Radiosensitivity of […] Glioblastoma. Percent inhibition of tumor cell proliferation was quantitated in the presence or absence of CLK-Peptide, ionizing radiation, and a combination of the two.
Microtiter wells were coated with denatured collagen type-IV (10 μg/ml). GL261 cells were resuspended in proliferation buffer containing 1% serum in the presence or absence of a sub-optimal amount of CLK-peptide or control peptide (CTW) (50 μg/ml).
The cells were added to the coated wells and allowed to incubate for 1 hour, then either untreated or irradiated with a single fraction dose of ionizing radiation (5.0 Gy). A ^60Co source (Theratron) was used to deliver a single fraction of 5 Gy. The cells, on a 30 cm^2 field, were irradiated from a distance of 80 cm with a gantry angle of 180 degrees on a solid water phantom at 0.5 cm depth.
Tumor cells were allowed to proliferate for 3 days and proliferation was quantified by measuring the relative amount of mitochondrial dehydrogenase using a WST-1 tetrazolium salt cleavage assays kit (Chemicon).

Substance: H-CLKQNGGNFSLG-OH [CLK-peptide, NH2-C-L-K-Q-N-G-G-N-F-S-L-G-COOH]
- increase of the antiproliferative effects of a sub-optimal dose of ionizing radiation: approximately 5 fold
